Here are results for 15 compounds from US20240158438A1, “POLYPEPTIDE COMPOUND AND APPLICATION THEREOF” (CHENGDU SINTANOVO BIOTECHNOLOGY CO., LTD., priority 2021, published 2024).

The target of one data set is CYP1A2 (Homo sapiens (Human), UniProt P05177). The data set can be described thus: in vitro. The conditions noted are these: microsomes, 10 min. The class given is in vitro ADME. The protocol:
(§1) Human liver microsomes containing cytochrome P450 (0.253 mg/mL protein) were incubated with test compounds (0.05-50 μM), CYPs substrates (10 μM […], 5 μM diclofenac, 30 μM mephenytoin, 5 μM dextromethorphan hydrobromide and 2 μM midazolam) and 1.0 mM NADP at 37° C. for 10 min. Naphthoflavone, sulfaphenazole, N-3-benzylnirvanol, quinidine and ketoconazole were used as reference inhibitors.

The next data set deals with GHSR-1a (Homo sapiens (Human), UniProt Q92847). As to the kind of experiment: Agonistic activity for GHSR-1a, FLIPR calcium assay. Format: cell-based. The conditions noted are these: agonist activity assay, Flp In-CHO-GHSR Stable Pool cells, FLIPR calcium 6 kit; read-out: The activity (IC50) of polypeptide compounds for GHSR-1a. The text has this:
The use of recombinant expression of GHSR provides several advantages; for example, the receptor can be expressed in a determined cell system, so that it is easier to distinguish between the reactions of the compounds with GHSR and the reactions with other receptors. For example, cell lines such as HEK293, COS7 and CHO that […] can be used to express GHSR, and the same cell lines without expression vectors are used as controls.
The activity of GHSR-1a can be measured using different techniques, for example, by detecting the change in the intracellular conformation of GHSR, the change in G-protein coupling activity, and/or the change in intracellular messengers. Techniques such as measuring intracellular Ca^2+ are preferably used to measure the activity of GHSR-1a. Examples of techniques known in the art that can be used to measure Ca^2+ include the use of FLIPR® calcium ion assay kits, among others. The FLIPR® calcium ion assay kits use a calcium ion sensitive indicator and a masking dye to ensure that a researcher carries out high-sensitivity fluorescent screening for G protein-coupled receptors, ion channels and other calcium ion sensitive targets. This experiment used FLIPR calcium 6 assay kits and FLIPR calcium 6-QF assay kits.
• a) Cell line: Flp In-CHO-GHSR Stable Pool; • b) Complete medium: F12K+10% fetal bovine serum+1×penicillin-streptomycin (PS)+600 μg/mL hygromycin B; • c) Cell seeding medium: F12K+10% fetal bovine serum. • d) Assay buffer: 1× HBSS+20 mM HEPES. • e) […] component A: Assay buffer and component A were left at room temperature (RT), 10 mL of buffer was added to component A, and the mixture was vortexed for 1-2 min and stored at −20° C.
• a) Compound stock solutions: the powders from in-house synthesis were made into 10 mM stock solutions in DMSO according to the standard protocol. • b) Compound storage: all compounds in DMSO were stored in room temperature desiccators for short-term storage (at most 4 months). The remaining compounds were left at −20 ° C. for long-term storage.
• a) Flp In-CHO-GHSR Stable Pool cells were cultured in complete medium. • b) The cells were placed in […] cell seeding medium in a 384-well cell culture plate (Corning, 3764) at 7k cells/well and cultured overnight at 37° C. with 5% CO2. • c) 20× component A was thawed at room temperature, diluted with assay buffer to 2×, and left at RT. • d) The Petri dish was taken out of the incubator and equilibrated at room temperature for 10 min. The medium was changed to […]. After the final wash, 20 μL of buffer was kept in each well, 20 μL of 2× component A was then added to each well, and the plate was incubated at 37° C. for 3-5 s. • e) 10 μL of 5× compound was added to the 384-well cell culture plate, and data collection was immediately performed using FLIPR Tetra.
• 1) Z′ factor=1−3×(SDMax+SDMin)/(MeanMax−MeanMin); • 2) CVMax=(SDMax/MeanMax)×100%; • 3) CVMin=(SDMin/MeanMin)×100%; • 4) S/B=Singal/Background; • 5) Calculation formula for IC50: • Y=Bottom+(Top−Bottom)/(1+10^((LogIC50−X)×HillSlope)) • X: log value of compound concentration; Y: Activation % or Inhibition %

The target in the next data set is CYP 2C19 (Homo sapiens (Human), UniProt P33261). Format: in vitro ADME. The conditions noted are these: microsomes, 10 min. The protocol:
as §1

A further data set concerns the target CYP 3A4 (Homo sapiens (Human), UniProt P08684). The class given is in vitro ADME. The conditions noted are these: microsomes, 10 min. The protocol:
as §1

A further data set concerns the target CYP 2C9 (Homo sapiens (Human), UniProt P11712). Format: in vitro ADME. As to conditions: microsomes, 10 min. The protocol:
as §1

In a further data set the target is CYP 2D6 (Homo sapiens (Human), UniProt P10635). Format: in vitro ADME. The conditions noted are these: microsomes, 10 min. The protocol:
as §1

SMILES strings stand for the structures. Starred links: 1 amine or outer side, 2 acyl side, 3 side chain; linkers in the order of their positions; H or OH if unused. Non-standard residues stand in square brackets, D forms with d. Residues, ends and D or L forms follow the SMILES beside them. *: point of attachment. Azetidine3carboxylic = O=C(C1CN([*:1])C1)[*:2]; Pyrrolidine3carbonyl(3S) = O=C([C@H]1CCNC1)*; dBta = N[C@H](Cc1csc2ccccc12)C(=O)O; Ac4c(3-oxa) = NC1(C(=O)O)COC1; X1 = N[C@H]1CCC[C@H]1C(=O)*; X2 = O=C(C12CNC[C@@H]1C2)*; dAbu = CC[C@@H](N)C(=O)O; Api = NC1(C(=O)O)CCNCC1; dAze = O=C(O)[C@H]1CCN1; Abu = CC[C@H](N)C(=O)O; X3 = NCC1(C(=O)*)CCC1; βAla = NCCC(=O)O

Sequence of GHSR-1a (Q92847 whole entry): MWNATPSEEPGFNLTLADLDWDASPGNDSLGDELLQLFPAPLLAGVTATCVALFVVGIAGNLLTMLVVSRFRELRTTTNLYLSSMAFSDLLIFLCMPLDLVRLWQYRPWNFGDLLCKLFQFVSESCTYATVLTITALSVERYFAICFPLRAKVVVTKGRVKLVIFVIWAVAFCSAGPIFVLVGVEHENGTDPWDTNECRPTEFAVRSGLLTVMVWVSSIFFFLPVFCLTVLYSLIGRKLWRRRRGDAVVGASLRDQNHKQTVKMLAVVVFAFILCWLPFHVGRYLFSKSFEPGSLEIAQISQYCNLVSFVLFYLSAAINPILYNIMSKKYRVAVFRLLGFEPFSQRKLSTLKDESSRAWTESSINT
Sequence of CYP 3A4 (P08684 whole entry): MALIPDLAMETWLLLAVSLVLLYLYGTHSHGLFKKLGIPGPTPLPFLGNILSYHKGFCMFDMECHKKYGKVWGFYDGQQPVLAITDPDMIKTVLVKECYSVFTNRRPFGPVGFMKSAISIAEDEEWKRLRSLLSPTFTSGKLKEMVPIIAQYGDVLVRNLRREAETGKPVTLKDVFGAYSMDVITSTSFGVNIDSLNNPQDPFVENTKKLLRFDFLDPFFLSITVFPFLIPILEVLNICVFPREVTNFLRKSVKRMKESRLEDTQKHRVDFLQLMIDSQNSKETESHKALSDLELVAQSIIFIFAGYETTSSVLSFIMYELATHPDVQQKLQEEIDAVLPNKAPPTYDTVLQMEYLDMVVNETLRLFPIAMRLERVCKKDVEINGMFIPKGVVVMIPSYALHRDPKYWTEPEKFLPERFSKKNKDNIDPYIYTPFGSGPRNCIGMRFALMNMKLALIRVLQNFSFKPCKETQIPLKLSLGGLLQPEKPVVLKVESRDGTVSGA
Sequence of CYP 2C9 (P11712 whole entry): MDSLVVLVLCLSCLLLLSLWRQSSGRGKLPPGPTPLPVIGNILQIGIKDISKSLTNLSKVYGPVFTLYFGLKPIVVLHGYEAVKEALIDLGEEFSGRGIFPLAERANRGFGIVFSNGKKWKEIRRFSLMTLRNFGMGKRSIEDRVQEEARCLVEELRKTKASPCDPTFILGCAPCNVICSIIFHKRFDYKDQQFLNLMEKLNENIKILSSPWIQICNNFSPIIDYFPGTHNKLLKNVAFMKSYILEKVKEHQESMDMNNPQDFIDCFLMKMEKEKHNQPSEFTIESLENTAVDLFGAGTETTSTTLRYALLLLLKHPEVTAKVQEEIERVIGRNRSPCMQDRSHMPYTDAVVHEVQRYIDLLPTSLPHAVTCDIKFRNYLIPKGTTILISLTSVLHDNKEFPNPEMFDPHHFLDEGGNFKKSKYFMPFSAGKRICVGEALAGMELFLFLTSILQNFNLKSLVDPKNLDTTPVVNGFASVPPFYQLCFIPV
Sequence of CYP1A2 (P05177 whole entry): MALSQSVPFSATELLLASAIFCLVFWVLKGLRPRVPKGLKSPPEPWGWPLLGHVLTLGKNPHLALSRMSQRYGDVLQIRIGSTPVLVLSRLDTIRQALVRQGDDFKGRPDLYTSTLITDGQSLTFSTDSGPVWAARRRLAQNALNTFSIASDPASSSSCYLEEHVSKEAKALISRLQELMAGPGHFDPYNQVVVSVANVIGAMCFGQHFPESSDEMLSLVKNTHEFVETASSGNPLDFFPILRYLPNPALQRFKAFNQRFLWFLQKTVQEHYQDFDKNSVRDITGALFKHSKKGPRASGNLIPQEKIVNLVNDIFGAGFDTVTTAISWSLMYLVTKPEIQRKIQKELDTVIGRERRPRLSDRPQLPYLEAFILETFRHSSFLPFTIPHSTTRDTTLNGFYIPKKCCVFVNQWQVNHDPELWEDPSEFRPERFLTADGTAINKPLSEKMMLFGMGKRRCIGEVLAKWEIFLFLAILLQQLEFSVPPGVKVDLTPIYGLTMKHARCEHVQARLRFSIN
Sequence of CYP 2D6 (P10635 whole entry): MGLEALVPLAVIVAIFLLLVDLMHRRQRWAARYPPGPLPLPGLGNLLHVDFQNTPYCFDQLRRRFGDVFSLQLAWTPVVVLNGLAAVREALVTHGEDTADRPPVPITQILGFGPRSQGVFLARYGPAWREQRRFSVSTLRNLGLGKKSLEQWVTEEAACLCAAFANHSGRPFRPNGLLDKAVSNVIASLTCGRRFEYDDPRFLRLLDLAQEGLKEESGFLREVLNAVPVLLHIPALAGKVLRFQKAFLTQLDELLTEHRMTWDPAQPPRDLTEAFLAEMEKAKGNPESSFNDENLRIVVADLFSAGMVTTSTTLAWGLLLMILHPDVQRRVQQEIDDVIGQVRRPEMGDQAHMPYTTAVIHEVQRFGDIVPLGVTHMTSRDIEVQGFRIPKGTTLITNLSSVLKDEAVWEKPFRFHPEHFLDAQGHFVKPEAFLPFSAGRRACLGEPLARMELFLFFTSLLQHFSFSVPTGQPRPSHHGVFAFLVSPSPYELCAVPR
Sequence of CYP 2C19 (P33261 whole entry): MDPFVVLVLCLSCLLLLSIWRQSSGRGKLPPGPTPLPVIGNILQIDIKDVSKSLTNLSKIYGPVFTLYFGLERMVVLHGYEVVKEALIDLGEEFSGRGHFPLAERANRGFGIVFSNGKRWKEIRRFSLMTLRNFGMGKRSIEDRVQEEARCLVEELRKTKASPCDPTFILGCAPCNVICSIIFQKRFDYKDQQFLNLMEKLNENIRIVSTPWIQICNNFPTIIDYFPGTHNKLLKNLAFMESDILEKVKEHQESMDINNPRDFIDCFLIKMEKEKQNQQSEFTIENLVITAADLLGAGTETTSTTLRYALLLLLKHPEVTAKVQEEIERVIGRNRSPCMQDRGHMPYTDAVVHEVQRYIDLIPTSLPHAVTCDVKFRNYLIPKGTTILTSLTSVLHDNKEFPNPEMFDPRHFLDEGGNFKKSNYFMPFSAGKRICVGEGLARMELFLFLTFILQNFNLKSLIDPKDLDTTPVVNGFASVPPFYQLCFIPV

A word on the IC50: it is the concentration that inhibits the measured activity by half. As to `CC[C@@H](N)C(=O)N[C@H](Cc1csc2ccccc12)C(=O)N[C@H](Cc1c[nH]c2ccccc12)C(=O)N[C@@H](Cc1ccccc1)C(=O)NC1(C(N)=O)CCNCC1` [Compound 2] (H-[dAbu][dBta][dW]F[Api]-NH2), the IC50 is more than 50 µM on CYP1A2; 3.5 nM at GHSR-1a; more than 50 µM against CYP 2C19; 20 µM against CYP 3A4; more than 50 µM at CYP 2C9; more than 50 µM at CYP 2D6.
For `CC[C@H](N)C(=O)N[C@H](Cc1csc2ccccc12)C(=O)N[C@H](Cc1c[nH]c2ccccc12)C(=O)N[C@@H](Cc1ccccc1)C(=O)NC1(C(N)=O)CCNCC1` [Compound 3] (H-[Abu][dBta][dW]F[Api]-NH2), the IC50 on CYP1A2 was more than 50 µM; at GHSR-1a it was 17.2 nM; on CYP 2C19 it was more than 50 µM; at CYP 3A4, more than 50 µM; against CYP 2C9 it was more than 50 µM; against CYP 2D6, more than 50 µM.
For the compound `NCC(=O)N[C@H](Cc1csc2ccccc12)C(=O)N[C@H](Cc1c[nH]c2ccccc12)C(=O)N[C@@H](Cc1ccccc1)C(=O)NC1(C(N)=O)CCNCC1` [Compound 11] (H-G[dBta][dW]F[Api]-NH2), the IC50 was more than 50 µM against CYP1A2; 20.3 nM on GHSR-1a; more than 50 µM against CYP 2C19; 33.4 µM at CYP 3A4; more than 50 µM against CYP 2C9; more than 50 µM on CYP 2D6.
For the compound `C[C@@H](N)C(=O)N[C@H](Cc1csc2ccccc12)C(=O)N[C@H](Cc1c[nH]c2ccccc12)C(=O)N[C@@H](Cc1ccccc1)C(=O)NC1(C(N)=O)CCNCC1` [Compound 12] (H-[dA][dBta][dW]F[Api]-NH2), the IC50 is more than 50 µM on CYP1A2; 53.7 nM at GHSR-1a; more than 50 µM against CYP 2C19; more than 50 µM against CYP 3A4; more than 50 µM on CYP 2C9; more than 50 µM against CYP 2D6.
For the compound `CC(C)[C@@H](N)C(=O)N[C@H](Cc1csc2ccccc12)C(=O)N[C@H](Cc1c[nH]c2ccccc12)C(=O)N[C@@H](Cc1ccccc1)C(=O)NC1(C(N)=O)CCNCC1` [Compound 13] (H-[dV][dBta][dW]F[Api]-NH2), the IC50 was more than 50 µM at CYP1A2; 43.5 nM on GHSR-1a; more than 50 µM on CYP 2C19; more than 50 µM against CYP 3A4; more than 50 µM against CYP 2C9; more than 50 µM against CYP 2D6.
On to `CC(C)C[C@@H](N)C(=O)N[C@H](Cc1csc2ccccc12)C(=O)N[C@H](Cc1c[nH]c2ccccc12)C(=O)N[C@@H](Cc1ccccc1)C(=O)NC1(C(N)=O)CCNCC1` [Compound 14] (H-[dL][dBta][dW]F[Api]-NH2), for which the IC50 is more than 50 µM against CYP1A2; 33.2 nM on GHSR-1a; more than 50 µM at CYP 2C19; more than 50 µM at CYP 3A4; more than 50 µM on CYP 2C9; more than 50 µM against CYP 2D6.
As to `NC(=O)C1(NC(=O)[C@H](Cc2ccccc2)NC(=O)[C@@H](Cc2c[nH]c3ccccc23)NC(=O)[C@@H](Cc2csc3ccccc23)NC(=O)[C@@H]2CCCN2)CCNCC1` [Compound 15] (H-P[dBta][dW]F[Api]-NH2), the IC50 is more than 50 µM at CYP1A2; 2.3 nM on GHSR-1a; more than 50 µM at CYP 2C19; 8.82 µM at CYP 3A4; more than 50 µM on CYP 2C9; 31.1 µM at CYP 2D6.
For `NCCC(=O)N[C@H](Cc1csc2ccccc12)C(=O)N[C@H](Cc1c[nH]c2ccccc12)C(=O)N[C@@H](Cc1ccccc1)C(=O)NC1(C(N)=O)CCNCC1` [Compound 16] (H-[βAla][dBta][dW]F[Api]-NH2), the IC50 against CYP1A2 is more than 50 µM; at GHSR-1a it was 0.7 nM; at CYP 2C19 it was more than 50 µM; on CYP 3A4 it was 19.8 µM; against CYP 2C9 it was more than 50 µM; against CYP 2D6, 35.4 µM.
With `NC(=O)C1(NC(=O)[C@H](Cc2ccccc2)NC(=O)[C@@H](Cc2c[nH]c3ccccc23)NC(=O)[C@@H](Cc2csc3ccccc23)NC(=O)[C@@H]2CCC[C@@H]2N)CCNCC1` [Compound 21] (X1-[dBta][dW]F[Api]-NH2), the IC50 is more than 50 µM against CYP1A2; 23 nM at GHSR-1a; more than 50 µM against CYP 2C19; more than 50 µM at CYP 3A4; more than 50 µM on CYP 2C9; more than 50 µM on CYP 2D6.
For the compound `NCC1(C(=O)N[C@H](Cc2csc3ccccc23)C(=O)N[C@H](Cc2c[nH]c3ccccc23)C(=O)N[C@@H](Cc2ccccc2)C(=O)NC2(C(N)=O)CCNCC2)CCC1` [Compound 22] (X3-[dBta][dW]F[Api]-NH2), the 50% inhibitory concentration (IC50) on CYP1A2 is more than 50 µM; at GHSR-1a, 2.3 nM; against CYP 2C19 it was more than 50 µM; against CYP 3A4, more than 50 µM; at CYP 2C9 it was more than 50 µM; against CYP 2D6, more than 50 µM.
With `NC(=O)C1(NC(=O)[C@H](Cc2ccccc2)NC(=O)[C@@H](Cc2c[nH]c3ccccc23)NC(=O)[C@@H](Cc2csc3ccccc23)NC(=O)C2CNC2)CCNCC1` [Compound 23] (Azetidine3carboxylic-[dBta][dW]F[Api]-NH2), the concentration for half-maximal inhibition (IC50) on CYP1A2 is more than 50 µM; at GHSR-1a it was 3.3 nM; at CYP 2C19, more than 50 µM; against CYP 3A4, more than 50 µM; on CYP 2C9 it was more than 50 µM; against CYP 2D6 it was more than 50 µM.
As for `NC(=O)C1(NC(=O)[C@H](Cc2ccccc2)NC(=O)[C@@H](Cc2c[nH]c3ccccc23)NC(=O)[C@@H](Cc2csc3ccccc23)NC(=O)C2(N)COC2)CCNCC1` [Compound 24] (H-[Ac4c(3-oxa)][dBta][dW]F[Api]-NH2), the IC50 on CYP1A2 is more than 50 µM; on GHSR-1a it was 5.4 nM; against CYP 2C19, more than 50 µM; against CYP 3A4 it was more than 50 µM; on CYP 2C9, more than 50 µM; on CYP 2D6, more than 50 µM.
As for `NC(=O)C1(NC(=O)[C@H](Cc2ccccc2)NC(=O)[C@@H](Cc2c[nH]c3ccccc23)NC(=O)[C@@H](Cc2csc3ccccc23)NC(=O)[C@H]2CCN2)CCNCC1` [Compound 25] (H-[dAze][dBta][dW]F[Api]-NH2), the IC50 is more than 50 µM against CYP1A2; 18.1 nM on GHSR-1a; more than 50 µM against CYP 2C19; more than 50 µM at CYP 3A4; more than 50 µM on CYP 2C9; more than 50 µM against CYP 2D6.
Turning to `NC(=O)C1(NC(=O)[C@H](Cc2ccccc2)NC(=O)[C@@H](Cc2c[nH]c3ccccc23)NC(=O)[C@@H](Cc2csc3ccccc23)NC(=O)[C@H]2CCNC2)CCNCC1` [Compound 26] ({Pyrrolidine3carbonyl(3S)}-[dBta][dW]F[Api]-NH2), the IC50 is more than 50 µM at CYP1A2; 19.5 nM at GHSR-1a; more than 50 µM against CYP 2C19; more than 50 µM on CYP 3A4; more than 50 µM at CYP 2C9; more than 50 µM on CYP 2D6.
With `NC(=O)C1(NC(=O)[C@H](Cc2ccccc2)NC(=O)[C@@H](Cc2c[nH]c3ccccc23)NC(=O)[C@@H](Cc2csc3ccccc23)NC(=O)C23CNC[C@@H]2C3)CCNCC1` (stereo partly drawn) [Compound 30] (X2-[dBta][dW]F[Api]-NH2), the 50% inhibitory concentration (IC50) against CYP1A2 is more than 50 µM; at GHSR-1a, 13.4 nM; against CYP 2C19 it was more than 50 µM; against CYP 3A4 it was more than 50 µM; against CYP 2C9, more than 50 µM; against CYP 2D6 it was more than 50 µM.
